# Laboratory results published in patent US8846947B2, “Benzimidazoles and related analogs as sirtuin modulators” (GlaxoSmithKline LLC, priority 2008, dated 2014).
# Target: T1, SIRT1 (Homo sapiens, UniProt Q96EB6)
# T1 sequence (Q96EB6 1-747): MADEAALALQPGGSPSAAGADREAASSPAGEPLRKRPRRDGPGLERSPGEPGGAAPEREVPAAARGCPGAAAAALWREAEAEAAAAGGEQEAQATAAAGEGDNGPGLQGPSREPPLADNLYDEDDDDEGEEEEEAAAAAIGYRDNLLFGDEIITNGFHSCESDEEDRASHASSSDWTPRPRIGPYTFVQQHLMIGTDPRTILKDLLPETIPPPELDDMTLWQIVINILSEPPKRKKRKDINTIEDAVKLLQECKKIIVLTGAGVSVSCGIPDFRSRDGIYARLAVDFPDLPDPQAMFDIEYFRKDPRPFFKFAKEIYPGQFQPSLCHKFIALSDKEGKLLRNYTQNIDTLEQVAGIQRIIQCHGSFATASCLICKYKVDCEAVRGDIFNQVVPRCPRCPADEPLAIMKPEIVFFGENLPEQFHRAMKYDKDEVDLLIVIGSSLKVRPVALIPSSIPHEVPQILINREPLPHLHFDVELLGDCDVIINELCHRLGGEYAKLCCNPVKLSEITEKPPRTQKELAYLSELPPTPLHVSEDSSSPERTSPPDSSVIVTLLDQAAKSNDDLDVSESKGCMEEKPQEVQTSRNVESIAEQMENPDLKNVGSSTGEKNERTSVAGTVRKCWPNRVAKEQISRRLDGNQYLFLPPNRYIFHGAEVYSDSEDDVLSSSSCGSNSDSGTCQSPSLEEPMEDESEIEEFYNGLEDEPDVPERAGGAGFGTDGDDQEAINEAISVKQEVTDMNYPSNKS
# Experiment: Mass spectrometry based SIRT1 deacetylase activation assay (acetylated p53-derived peptide substrate)
# Type: biochemical
# Settings: not given
# Excerpt: A mass spectrometry based assay was used to identify modulators of SIRT1 activity. The mass spectrometry based assay utilizes a peptide having 20 amino acid residues as follows: Ac-EE-K(biotin)-GQSTSSHSK(Ac)NleSTEG-K(5TMR)-EE-NH2 (SEQ ID NO: 1) wherein K(Ac) is an acetylated lysine residue and Nle is a norleucine. The peptide is labeled with the fluorophore 5TMR (excitation 540 nm/emission 580 nm) at the C-terminus. The sequence of the peptide substrate is based on p53 with several modifications. In addition, the methionine residue naturally present in the sequence was replaced with the norleucine because the methionine may be susceptible to oxidation during synthesis and purification.
# The mass spectrometry assay is conducted as follows: 0.5 μM peptide substrate and 120 μM βNAD^+ is incubated with 10 nM SIRT1 for 25 minutes at 25° C. in a reaction buffer (50 mM Tris-acetate pH 8, 137 mM NaCl, 2.7 mM KCl, 1 mM MgCl2, 5 mM DTT, 0.05% BSA). Test compounds may be added to the reaction as described above. […] After the 25 minute incubation with SIRT1, 10 μL of 10% formic acid is added to stop the reaction. Reactions are sealed and frozen for later mass spec analysis. Determination of the mass of the substrate peptide allows for precise determination of the degree of acetylation (i.e. starting material) as compared to deacetylated peptide (product).
# A control for inhibition of sirtuin activity is conducted by adding 1 μL of 500 mM nicotinamide as a negative control at the start of the reaction (e.g., permits determination of maximum sirtuin inhibition). A control for activation of sirtuin activity is conducted using 10 nM of sirtuin protein, with 1 μL of DMSO in place of compound, to determine the amount of deacetylation of the substrate at a given timepoint within the linear range of the assay. This timepoint is the same as that used for test compounds and, within the linear range, the endpoint represents a change in velocity.
# For the above assay, SIRT1 protein was expressed and purified as follows. […] The protein was expressed by induction with 1 mM IPTG as an N-terminal His-tag fusion protein at 18° C. overnight and harvested at 30,000×g. Cells were lysed with lysozyme in lysis buffer (50 mM Tris-HCl, 2 mM Tris[2-carboxyethyl]phosphine (TCEP), 10 μM ZnCl2, 200 mM NaCl) and further treated with sonication for 10 min for complete lysis. The protein was purified over a Ni-NTA column (Amersham) and fractions containing pure protein were pooled, concentrated and run over a sizing column (Sephadex S200 26/60 global). The peak containing soluble protein was collected and run on an Ion-exchange column (MonoQ). Gradient elution (200 mM-500 mM NaCl) yielded pure protein. This protein was concentrated and dialyzed against dialysis buffer (20 mM Tris-HCl, 2 mM TCEP) overnight. The protein was aliquoted and frozen at −80° C. until further use.
# Sirtuin modulating compounds that activated SIRT1 were identified using the assay described above and are shown below in Table 1. The EC1.5 values for the activating compounds are represented by A (EC1.5<1.0 uM), B (EC1.5 1-25 uM), C (EC1.5 >25 uM). The percent maximum fold activation is represented by A (Fold activation >200%) or B (Fold Activation <200%).
Compound,EC1.5,Fold Act. (percent maximum fold activation)
O=C(Nc1nccs1)c1cccc2[nH]c(-c3ccncc3Cl)nc12 [Compound 294],B (EC1.5 1-25 uM),A (Fold activation >200%)
Cc1cc(C)nc(NC(=O)c2cccc3[nH]c(-c4cc(F)ccc4C(F)(F)F)nc23)c1 [Compound 379],A (EC1.5<1.0 uM),A (Fold activation >200%)
O=C(NC1CCOCC1)c1cccc2[nH]c(-c3cccc(C(F)(F)F)c3)nc12 [Compound 275],B (EC1.5 1-25 uM),A (Fold activation >200%)
O=C(NCc1ccccn1)c1cccc2[nH]c(-c3cccc(C(F)(F)F)c3)nc12 [Compound 252],B (EC1.5 1-25 uM),A (Fold activation >200%)
O=C(Nc1cccc2[nH]c(-c3cccc(C(F)(F)F)c3)nc12)c1cnccn1 [Compound 335],B (EC1.5 1-25 uM),A (Fold activation >200%)
O=C(Nc1nccs1)c1cccc2[nH]c(-c3cccc(N4CCCCC4)c3)nc12 [Compound 225],B (EC1.5 1-25 uM),A (Fold activation >200%)
O=C(NC1CCNCC1)c1cccc2[nH]c(-c3cccc(C(F)(F)F)c3)nc12 [Compound 298],B (EC1.5 1-25 uM),A (Fold activation >200%)

# Further lines, results first:
EC1.5,Fold Act. (percent maximum fold activation),Compound
B (EC1.5 1-25 uM),A (Fold activation >200%),O=C(Nc1cccc2[nH]c(-c3cccc(N4CCOCC4)c3)nc12)c1cscn1 [Compound 391]
B (EC1.5 1-25 uM),A (Fold activation >200%),O=C(Nc1ccccn1)c1cccc2[nH]c(-c3ccccc3C(F)(F)F)nc12 [Compound 248]
B (EC1.5 1-25 uM),A (Fold activation >200%),O=C(Nc1cccnc1Cl)c1cccc2[nH]c(-c3cccc(C(F)(F)F)c3)nc12 [Compound 286]
A (EC1.5<1.0 uM),A (Fold activation >200%),Cc1cc(NC(=O)c2cccc3[nH]c(-c4ccccc4C(F)(F)F)nc23)n(C)n1 [Compound 354]
C (EC1.5 >25 uM),B (Fold Activation <200%),O=C(NC1CCOC1=O)c1cccc2[nH]c(-c3ccccc3C(F)(F)F)nc12 (stereo not shown) [Compound 353]

# Same assay, conditions: 0.5 μM peptide substrate, 120 μM βNAD+, 10 nM SIRT1, 25 min at 25° C.
row,Compound,Fold Act. (percent maximum fold activation)
1,CN1CCN(c2cccc(-c3nc4c(C(=O)Nc5nccs5)cccc4[nH]3)c2)CC1 [Compound 527],A (Fold activation >200%)
2,Cc1cc(NC(=O)c2cccc3[nH]c(-c4cnc5c(c4)OCCN5C)nc23)n(C)n1 [Compound 523],B (Fold Activation <200%)
3,O=C1COc2ccc(-c3nc4c(C(=O)Nc5ccccn5)cccc4[nH]3)cc2N1 [Compound 565],B (Fold Activation <200%)

# Second part, the compound after the results:
row,Fold Act. (percent maximum fold activation),Compound
1,A (Fold activation >200%),O=C(Nc1ccccn1)c1cccc2[nH]c(-c3ccc(N4CCOCC4)cc3C(F)(F)F)nc12 [Compound 415]
2,A (Fold activation >200%),O=C(Nc1ccccn1)c1cccc2[nH]c(-c3cc(Cl)ccc3OCCN3CCOCC3)nc12 [Compound 502]
3,A (Fold activation >200%),Cc1cc(NC(=O)c2cccc3[nH]c(-c4ccc(Cl)cc4C(F)(F)F)nc23)no1 [Compound 452]

# Same assay, conditions: 0.5 μM peptide substrate, 120 μM βNAD+, 10 nM SIRT1, 25 min at 25° C., read-out: EC1.5
row,Compound,EC1.5 [nM]
1,CN1CCN(c2cccc(-c3nc4c(C(=O)Nc5nccs5)cccc4[nH]3)c2)CC1 [Compound 527],< 1000
2,Cc1cc(NC(=O)c2cccc3[nH]c(-c4cnc5c(c4)OCCN5C)nc23)n(C)n1 [Compound 523],> 25000
3,O=C1COc2ccc(-c3nc4c(C(=O)Nc5ccccn5)cccc4[nH]3)cc2N1 [Compound 565],1000 to 25000

# Further lines, results first:
row,EC1.5 [nM],Compound
1,< 1000,O=C(Nc1ccccn1)c1cccc2[nH]c(-c3ccc(N4CCOCC4)cc3C(F)(F)F)nc12 [Compound 415]
2,1000 to 25000,O=C(Nc1ccccn1)c1cccc2[nH]c(-c3cc(Cl)ccc3OCCN3CCOCC3)nc12 [Compound 502]
3,< 1000,Cc1cc(NC(=O)c2cccc3[nH]c(-c4ccc(Cl)cc4C(F)(F)F)nc23)no1 [Compound 452]

# Same assay, conditions: 0.5 μM peptide substrate, 120 μM βNAD+, 10 nM SIRT1, 25 minutes at 25° C.
Compound,EC1.5,Fold Act. (percent maximum fold activation)
O=C(Nc1nccs1)c1cc(F)cc2nc(-c3ccc(Cl)cc3C(F)F)[nH]c12 [Compound 821],A (EC1.5<1.0 uM),A (Fold activation >200%)
O=C(Nc1ccncn1)c1cncc2[nH]c(-c3ccc(N4CCCC4)cc3C(F)F)nc12 [Compound 803],A (EC1.5<1.0 uM),A (Fold activation >200%)
O=C(Nc1nccs1)c1cc(F)cc2nc(-c3ccc(F)cc3C(F)F)[nH]c12 [Compound 824],A (EC1.5<1.0 uM),A (Fold activation >200%)

# Results, then the compound that gave them:
EC1.5,Fold Act. (percent maximum fold activation),Compound
A (EC1.5<1.0 uM),A (Fold activation >200%),O=C(Nc1ccccn1)c1cc(N2CCOCC2)cc2[nH]c(-c3ccccc3C(F)F)nc12 [Compound 736]
A (EC1.5<1.0 uM),A (Fold activation >200%),O=C(Nc1ccncn1)c1cccc2[nH]c(-c3ccc(N4CCCC4)cc3C(F)F)nc12 [Compound 776]
A (EC1.5<1.0 uM),A (Fold activation >200%),C[C@@H]1CN(c2ccc(-c3nc4c(C(=O)Nc5nccs5)cccc4[nH]3)c(C(F)(F)F)c2)C[C@H](C)O1 [Compound 603]
A (EC1.5<1.0 uM),A (Fold activation >200%),O=C(Nc1cccnc1)c1cncc2[nH]c(-c3ccccc3C(F)(F)F)nc12 [Compound 637]
A (EC1.5<1.0 uM),A (Fold activation >200%),O=C(Nc1cccc(OCC(O)CO)c1)c1cccc2[nH]c(-c3cc(F)ccc3C(F)(F)F)nc12 (stereo not shown) [Compound 680]
A (EC1.5<1.0 uM),A (Fold activation >200%),O=C(Nc1ccccn1)c1cncc2[nH]c(-c3ccc(OC[C@@H](O)CO)cc3C(F)(F)F)nc12 [Compound 760]
A (EC1.5<1.0 uM),A (Fold activation >200%),O=C(Nc1ccc(OC[C@H](O)CO)cc1)c1cccc2[nH]c(-c3cccc(N4CCOCC4)c3)nc12 [Compound 777]
A (EC1.5<1.0 uM),A (Fold activation >200%),O=C(Nc1nccs1)c1cc(N2CCOCC2)cc2[nH]c(-c3ccccc3C(F)F)nc12 [Compound 734]
A (EC1.5<1.0 uM),A (Fold activation >200%),O=C(Nc1cccnc1)c1cncc2[nH]c(-c3ccc(N4CCOCC4)cc3C(F)F)nc12 [Compound 807]
A (EC1.5<1.0 uM),A (Fold activation >200%),"O=C(Nc1ccccn1)c1cccc2[nH]c(-c3ccc(CN4CCCC4)cc3C(F)(F)F)nc12 [Compound 838, N-(pyridin-2-yl)-2-(4-(pyrrolidin-1-ylmethyl)-2-(trifluoromethyl)phenyl)-1H-benzo[d]imidazole-4-carboxamide]"
A (EC1.5<1.0 uM),A (Fold activation >200%),O=C(Nc1cccnc1)c1cc(N2CCOCC2)cc2[nH]c(-c3ccccc3C(F)(F)F)nc12 [Compound 630]
